Results: patent publication EP0333005A1, “Light-sensitive dialkoxybenzenediazonium compound, method for its preparation and its use” (priority 1988, dated 1989)

Test: Solubility in isopropanol/formic acid
Assay type: physicochemical
Conditions: Isopropanol/Ameisensäure (9:1), 20 °C
Procedure: So beträgt die Löslichkeit in der Form des 2,5-Diethoxy-4-thio(4′-methylphenyl)benzoldiazonium-sulfoisophthalats in Isopropanol/Ameisensäure (9:1) bei 20 °C 7,3 g/l, wogegen die entsprechende erfindungsgemäße Verbindung der Formel I sich zu 12,6 g/l bei 20 °C löst. Bei den bekannten Sulfoisophtalaten müssen daher zur besseren Lösung Löslichkeit verleihende Verbindungen zugesetzt werden.

SMILES	Löslichkeit (listed as entsprechende erfindungsgemäße Verbindung der Formel I)	Löslichkeit
CCOc1cc(Sc2ccc(C)cc2)c(OCC)cc1[N+]#N [Beispiel 1, 2,5-Diethoxy-4-thio(4′-methylphenyl)benzoldiazonium-sulfosalicylat]	12,6 g/l	
CCOc1cc(Sc2ccc(C)cc2)c(OCC)cc1[N+]#N [2,5-Diethoxy-4-thio(4′-methylphenyl)benzoldiazonium-sulfoisophthalat, reference compound]		7,3 g/l
